pIC50: −log10 of the molar value.
System: 636577-100-R-J1-PDC complex spheroid viability
Assay: Anticancer human tumor 636577-100-R-J1-PDC patient-derived endometrial adenocarcinoma cell line growth inhibition [GQUAD]
Settings: for pIC50: curve of first compound; for viability, T/C: stronger effect = lower value
Procedure, shortened: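 Tumor cells were grown as complex spheroids with HUVEC endothelial cells and mesenchymal stem cells as stroma. G-quadruplex stabilizers were combined with targeted agents over half-log dilutions from near the clinical Cmax, or from 10 microM.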

[1] = second compound 0.0316 µM, first compound 0.0316 µM
[2] = second compound 0.0316 µM, first compound 0.1 µM
[3] = second compound 0.0316 µM, first compound 0.316 µM
[4] = second compound 0.0316 µM, first compound 1 µM
[5] = second compound 0.0316 µM, first compound 3.16 µM
[6] = second compound 0.0316 µM, first compound 10 µM
[7] = second compound 0.1 µM, first compound 0.0316 µM
[8] = second compound 0.1 µM, first compound 0.1 µM
[9] = second compound 0.1 µM, first compound 0.316 µM
[10] = second compound 0.1 µM, first compound 1 µM
[11] = second compound 0.1 µM, first compound 3.16 µM
[12] = second compound 0.1 µM, first compound 10 µM
[13] = second compound 0.316 µM, first compound 0.0316 µM
[14] = second compound 0.316 µM, first compound 0.1 µM
[15] = second compound 0.316 µM, first compound 0.316 µM
[16] = second compound 0.316 µM, first compound 1 µM
[17] = second compound 0.316 µM, first compound 3.16 µM
[18] = second compound 0.316 µM, first compound 10 µM
[19] = second compound 1 µM, first compound 0.0316 µM
[20] = second compound 1 µM, first compound 0.1 µM
[21] = second compound 1 µM, first compound 0.316 µM
[22] = second compound 1 µM, first compound 1 µM
[23] = second compound 1 µM, first compound 3.16 µM
[24] = second compound 1 µM, first compound 10 µM
[25] = second compound 3.16 µM, first compound 0.0316 µM
[26] = second compound 3.16 µM, first compound 0.1 µM
[27] = second compound 3.16 µM, first compound 0.316 µM
[28] = second compound 3.16 µM, first compound 1 µM
[29] = second compound 3.16 µM, first compound 3.16 µM
[30] = second compound 3.16 µM, first compound 10 µM
[31] = second compound 10 µM, first compound 0.0316 µM
[32] = second compound 10 µM, first compound 0.1 µM
[33] = second compound 10 µM, first compound 0.316 µM
[34] = second compound 10 µM, first compound 1 µM
[35] = second compound 10 µM, first compound 3.16 µM
[36] = second compound 10 µM, first compound 10 µM
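Further: viability read after seven days of drug exposure.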
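Wherever viability, T/C is given: luminescence signal used as a proxy for viable cells; 100% = DMSO vehicle control wells.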

COc1ncnc(C2CC2)c1-c1ncc2cnn(Cc3ccc(-c4nc(C(F)(F)F)cn4C(C)C)cc3)c2n1 + CN(C)c1ccc(Nc2c3ccc(NC(=O)CCN4CCCC4)cc3nc3cc(NC(=O)CCN4CCCC4)ccc23)cc1
pIC50 (second compound 0.0316 µM): < 5.00
pIC50 (second compound 0.1 µM): < 5.00
pIC50 (second compound 0.316 µM): < 5.00
pIC50 (second compound 1 µM): 7.04
pIC50 (second compound 3.16 µM): > 7.50
pIC50 (second compound 10 µM): > 7.50
viability, T/C [1]: 79.6%
viability, T/C [2]: 62.9%
viability, T/C [3]: 69.6%
viability, T/C [4]: 64%
viability, T/C [5]: 56.9%
viability, T/C [6]: 57.4%
viability, T/C [7]: 69.4%
viability, T/C [8]: 47.5%
viability, T/C [9]: 66%
viability, T/C [10]: 39.1%
viability, T/C [11]: 63%
viability, T/C [12]: 68.8%
viability, T/C [13]: 71.5%
viability, T/C [14]: 61.9%
viability, T/C [15]: 58.1%
viability, T/C [16]: 54.4%
viability, T/C [17]: 64.2%
viability, T/C [18]: 48.9%
viability, T/C [19]: 57.2%
viability, T/C [20]: 52.5%
viability, T/C [21]: 49.2%
viability, T/C [22]: 25.7%
viability, T/C [23]: 54.3%
viability, T/C [24]: 48.9%
viability, T/C [25]: 32.4%
viability, T/C [26]: 31.1%
viability, T/C [27]: 36.2%
viability, T/C [28]: 30.8%
viability, T/C [29]: 26%
viability, T/C [30]: 17.8%
viability, T/C [31]: 4.33%
viability, T/C [32]: 4.66%
viability, T/C [33]: 3.91%
viability, T/C [34]: 3.97%
viability, T/C [35]: 2.12%
viability, T/C [36]: 0.46%

COc1ccc([C@@H](O)c2cc(-c3ncnc4cc(N5CCOCC5)ccc34)c(F)cc2Cl)nn1 + CN(C)c1ccc(Nc2c3ccc(NC(=O)CCN4CCCC4)cc3nc3cc(NC(=O)CCN4CCCC4)ccc23)cc1
pIC50 (second compound 0.0316 µM): 5.81
pIC50 (second compound 0.1 µM): 6.31
pIC50 (second compound 0.316 µM): 6.33
pIC50 (second compound 1 µM): 6.82
pIC50 (second compound 3.16 µM): > 7.50
pIC50 (second compound 10 µM): > 7.50
viability, T/C [1]: 93.7%
viability, T/C [2]: 98%
viability, T/C [3]: 88.5%
viability, T/C [4]: 55.3%
viability, T/C [5]: 39.1%
viability, T/C [6]: 20.1%
viability, T/C [7]: 102%
viability, T/C [8]: 63.5%
viability, T/C [9]: 58.3%
viability, T/C [10]: 44%
viability, T/C [11]: 37%
viability, T/C [12]: 19.8%
viability, T/C [13]: 77.5%
viability, T/C [14]: 77.2%
viability, T/C [15]: 61%
viability, T/C [16]: 27.6%
viability, T/C [17]: 24%
viability, T/C [18]: 12.1%
viability, T/C [19]: 73.2%
viability, T/C [20]: 47.4%
viability, T/C [21]: 50.6%
viability, T/C [22]: 25.5%
viability, T/C [23]: 17.4%
viability, T/C [24]: 11.7%
viability, T/C [25]: 35.3%
viability, T/C [26]: 40.5%
viability, T/C [27]: 24%
viability, T/C [28]: 14.5%
viability, T/C [29]: 9.36%
viability, T/C [30]: 7.69%
viability, T/C [31]: 5.37%
viability, T/C [32]: 4.81%
viability, T/C [33]: 3.18%
viability, T/C [34]: 2.32%
viability, T/C [35]: 1.95%
viability, T/C [36]: 0.58%

O=c1[nH]cc(F)c(=O)[nH]1 + CN(C)c1ccc(Nc2c3ccc(NC(=O)CCN4CCCC4)cc3nc3cc(NC(=O)CCN4CCCC4)ccc23)cc1
pIC50 (second compound 0.0316 µM): 5.31
pIC50 (second compound 0.1 µM): 5.43
pIC50 (second compound 0.316 µM): 5.26
pIC50 (second compound 1 µM): 5.50
pIC50 (second compound 3.16 µM): > 7.50
pIC50 (second compound 10 µM): > 7.50
viability, T/C [1]: 83.1%
viability, T/C [2]: 85.7%
viability, T/C [3]: 87.9%
viability, T/C [4]: 79.5%
viability, T/C [5]: 62.5%
viability, T/C [6]: 30.1%
viability, T/C [7]: 105%
viability, T/C [8]: 110%
viability, T/C [9]: 72.3%
viability, T/C [10]: 63.6%
viability, T/C [11]: 67.5%
viability, T/C [12]: 27.4%
viability, T/C [13]: 88%
viability, T/C [14]: 75.3%
viability, T/C [15]: 75.6%
viability, T/C [16]: 79.9%
viability, T/C [17]: 69.5%
viability, T/C [18]: 29.2%
viability, T/C [19]: 67.5%
viability, T/C [20]: 88.8%
viability, T/C [21]: 70.5%
viability, T/C [22]: 65.3%
viability, T/C [23]: 50.8%
viability, T/C [24]: 26%
viability, T/C [25]: 43.7%
viability, T/C [26]: 44.2%
viability, T/C [27]: 49.5%
viability, T/C [28]: 32.1%
viability, T/C [29]: 27.7%
viability, T/C [30]: 21%
viability, T/C [31]: 7%
viability, T/C [32]: 6.98%
viability, T/C [33]: 6.89%
viability, T/C [34]: 6.25%
viability, T/C [35]: 6.48%
viability, T/C [36]: 3.81%

O=C(c1cc(Cc2n[nH]c(=O)c3ccccc23)ccc1F)N1CCN(C(=O)C2CC2)CC1 + CN(C)c1ccc(Nc2c3ccc(NC(=O)CCN4CCCC4)cc3nc3cc(NC(=O)CCN4CCCC4)ccc23)cc1
pIC50 (second compound 0.0316 µM): 5.80
pIC50 (second compound 0.1 µM): 5.84
pIC50 (second compound 0.316 µM): 5.43
pIC50 (second compound 1 µM): 5.87
pIC50 (second compound 3.16 µM): > 7.50
pIC50 (second compound 10 µM): > 7.50
viability, T/C [1]: 93.1%
viability, T/C [2]: 54.9%
viability, T/C [3]: 71%
viability, T/C [4]: 63.8%
viability, T/C [5]: 37.7%
viability, T/C [6]: 33.2%
viability, T/C [7]: 69.7%
viability, T/C [8]: 54.2%
viability, T/C [9]: 52.1%
viability, T/C [10]: 57.7%
viability, T/C [11]: 46.2%
viability, T/C [12]: 31.7%
viability, T/C [13]: 50.3%
viability, T/C [14]: 53.6%
viability, T/C [15]: 64.3%
viability, T/C [16]: 61.5%
viability, T/C [17]: 50.1%
viability, T/C [18]: 34.1%
viability, T/C [19]: 63.7%
viability, T/C [20]: 62.4%
viability, T/C [21]: 60.5%
viability, T/C [22]: 54.3%
viability, T/C [23]: 38.9%
viability, T/C [24]: 28.8%
viability, T/C [25]: 29.2%
viability, T/C [26]: 40.2%
viability, T/C [27]: 34.2%
viability, T/C [28]: 30.8%
viability, T/C [29]: 25.6%
viability, T/C [30]: 21.1%
viability, T/C [31]: 5.92%
viability, T/C [32]: 4.61%
viability, T/C [33]: 4.06%
viability, T/C [34]: 5.25%
viability, T/C [35]: 6.06%
viability, T/C [36]: 4.36%
